From patent US20170095504A1, “Inhibitors of Kidney Stone Formation and Calcium Deposition” (priority 2015, published 2017)

Assays:
[1] = Effect of inhibitors on crystal morphology (COM/COD/COT); details: 100 mg/L; 1 hr after start of reaction; control yields COM
[2] = Calcium binding (free Ca in solution before oxalate addition); type: physicochemical; details: inhibitor 100 mg/L; ~1.0 mM if no Ca binding occurs; control 1.02 mM
Experimental: Calcium binding was determined before oxalate addition. Crystals were obtained after the end of the kinetic experiments (1 hour), filtered, dried and tested by FTIR. The major polymorph was reported; other phases may be present but their peaks were not distinguishable in IR. Initial calcium and oxalate concentrations was the same, approximately 1 mM in pH buffered medium containing 10 mM HEPES and 150 mM NaCl. […] The data are Ca recordings obtained from solutions containing the inhibitor (100 mg/L) and calcium. The Ca ion concentration should be ˜1.0 mM if no Ca binding occurs. This could be related to the type of adsorption on the crystals as reported in a later section. Some of our proposed KSIs are showing significant Ca binding activity, and these are likely to be the best candidates as inhibitors.

Ca2+ concentration in the presence of inhibitors at 100 mg/L (PPM) [2]: 0.71 mM
SMILES: O=C(O)CN(CCN(CC(=O)O)CC(=O)O)CCN(CC(=O)O)CC(=O)O [DTPA, diethylenetriaminepentaacetic acid]
crystal phase obtained (COM, COD or COT) [1]: COT
